Data from BindingDB's records for doi:10.1021/acschembio.6b00827 (Universitätsklinikum Frankfurt, 2017).

Experiments:
[1] = molecular target: T1, Protein kinase C iota type (Homo sapiens, UniProt P41743); assay: PKC AlphaScreen Assay; settings: pH 7.4
T1 sequence (P41743 whole entry): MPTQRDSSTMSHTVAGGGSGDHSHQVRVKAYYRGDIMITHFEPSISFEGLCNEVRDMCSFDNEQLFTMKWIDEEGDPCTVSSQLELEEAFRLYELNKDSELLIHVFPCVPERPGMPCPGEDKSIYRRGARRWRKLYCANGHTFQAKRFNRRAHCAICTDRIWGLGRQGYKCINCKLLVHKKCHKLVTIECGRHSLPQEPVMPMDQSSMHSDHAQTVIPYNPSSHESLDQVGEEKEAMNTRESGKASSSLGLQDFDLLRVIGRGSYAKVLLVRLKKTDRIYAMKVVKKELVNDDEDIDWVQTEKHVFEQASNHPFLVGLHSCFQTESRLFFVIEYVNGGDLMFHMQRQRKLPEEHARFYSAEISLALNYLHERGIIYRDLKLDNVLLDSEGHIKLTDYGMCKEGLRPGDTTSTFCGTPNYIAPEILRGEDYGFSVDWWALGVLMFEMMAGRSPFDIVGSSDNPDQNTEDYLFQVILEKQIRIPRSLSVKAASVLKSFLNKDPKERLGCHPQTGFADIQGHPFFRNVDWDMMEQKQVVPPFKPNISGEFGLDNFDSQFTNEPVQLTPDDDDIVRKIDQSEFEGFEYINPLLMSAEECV
Protocol: (§1) Interaction assays were performed using the Alpha-Screen (amplified luminescent proximity homogeneous assay) technology, as described previously [Lopez-Garcia et al., Chem. Biol., 18:1463-1473; Zhang et al., Chem. Biol., 21:754-765]. The bead-based assay allows the detection of biomolecular interactions and the effect of small compounds. Briefly, the Alpha-Screen assay was performed in a finalvolume of 25 μL in white 384-well microtiter plates (Greiner Bio-One) with His-PKCι-CD (40 nM) and biotin-pseudosubstrate (80 nM) or His-PKCι-CD (15 nM) and biotin-ROCKtide (100 nM) in a buffer containing 50 mM Tris-HCl (pH 7.4), 100 mM NaCl, 0.01% (v/v) Tween 20, 0.1% (w/v) BSA, 2 mM dithiothreitol (for the PKCι-Rocktide interaction) or 5 mM dithiothreitol (for the PKCι-pseudosubstrate interaction), and the corresponding concentration of the compound. Five microliters of beads at a concentration of 20 μg/mL was added to the mixture (nickel chelate-coated acceptor beads and streptavidin-coated donor beads), and after incubation for 90 min, Alpha-Screen counts were obtained in an EnVision Multiplate reader.

[2] = molecular target: T2, Protein kinase C zeta type (Homo sapiens, UniProt Q05513); assay: PKC AlphaScreen Assay; settings: pH 7.4
T2 sequence (Q05513 whole entry): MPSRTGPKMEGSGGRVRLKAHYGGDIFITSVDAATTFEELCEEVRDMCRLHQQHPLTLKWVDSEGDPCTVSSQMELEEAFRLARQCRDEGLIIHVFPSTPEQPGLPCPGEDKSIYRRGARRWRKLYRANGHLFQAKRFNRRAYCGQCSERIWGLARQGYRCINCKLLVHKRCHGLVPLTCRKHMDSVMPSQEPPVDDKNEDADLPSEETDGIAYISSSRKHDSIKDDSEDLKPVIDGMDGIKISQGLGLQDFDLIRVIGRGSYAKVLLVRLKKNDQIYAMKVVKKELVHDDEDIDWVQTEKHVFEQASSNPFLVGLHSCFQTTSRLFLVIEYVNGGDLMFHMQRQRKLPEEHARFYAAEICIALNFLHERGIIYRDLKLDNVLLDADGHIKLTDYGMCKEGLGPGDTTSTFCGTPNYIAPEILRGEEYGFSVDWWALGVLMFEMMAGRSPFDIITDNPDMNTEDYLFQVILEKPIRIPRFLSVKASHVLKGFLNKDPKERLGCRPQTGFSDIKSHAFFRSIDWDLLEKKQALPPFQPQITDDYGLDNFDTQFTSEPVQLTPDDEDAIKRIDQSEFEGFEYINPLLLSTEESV
Protocol: as §1

IC50 [1] [µM] | IC50 [2] [µM] | SMILES
43.2 | 20.5 | CCOC(=O)C1=C(O)C(=O)N(c2nc3ccc(Cl)cc3[nH]2)C1c1ccc(Cl)cc1 (configuration not stated) [PS212]
36.4 | 17.8 | CCOC(=O)C1=C(O)C(=O)N(c2nc3ccc(Cl)cc3s2)C1c1cccs1 (configuration not stated) [PS267]
 | 44.1 | CCOC(=O)C1=C(O)C(=O)N(c2nc3ccc(Cl)cc3[nH]2)C1c1ccccc1 (configuration not stated) [PS312]
16.9 | 18.5 | CCOC(=O)C1=C(O)C(=O)N(c2nc3ccc(C)cc3s2)C1c1ccc(-c2ccc(Cl)cc2)o1 (configuration not stated) [PS432]
